The values that follow are results of earlier work, collected in US12478584B1, “Atomoxetine hydrochloride oral suspension and use thereof” (OWP Pharmaceuticals, Inc., priority 2025, dated 2025).

For this data set the following is noted: standard temperature and pressure.

`CNCC[C@@H](Oc1ccccc1C)c1ccccc1.Cl` [Atomoxetine, (3R)—N-methyl-3-(2-methylphenoxy)-3-phenylpropan-1-amine]: the water solubility is recorded as 27.8 mg/mL.
